Reference: the supplement of paper PMC10627819

Legend:
S. pneumoniae D39V [1] = experiment: fitness (endpoint OD595 vs no drug) (fraction); higher = more growth
Summary of the method: (§1)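 With the first reading as background, OD595 was measured every 30 min for 14 h in 384-well plates kept at 37 °C and inoculated at OD595 0.01. TSB, LB Lennox or CY was the medium. Fitness is the optical density at the transition into stationary phase divided by the robust mean of no-drug control wells, with a cap of 1.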

B. subtilis 168 [2] = experiment: as above
Summary of the method: as §1

S. pneumoniae D39V [3] = experiment: Bliss interaction score (quartile over a dose matrix) (fitness difference); higher = more antagonism (negative = synergy)
Summary of the method: (§2)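 The Bliss score is observed minus expected fitness, where expected fitness is the product of the single-drug fitness values inferred from the combination data. Fitness is the OD595 at the onset of stationary phase over the plate's robust no-drug mean, capped at 1. Scores are summarised by quartiles over technical, biological and donor/recipient replicates.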

B. subtilis 168 [4] = experiment: as above
Summary of the method: as §2

S. aureus DSM 20231 = experiment: as above
Summary of the method: as §2

S. aureus Newman = experiment: as above
Summary of the method: as §2
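Wherever Bliss interaction score (quartile over a dose matrix) is given: first quartile when negative (synergy) and third quartile when positive (antagonism).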
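Wherever fitness (endpoint OD595 vs no drug) is given: OD595 on entry to stationary phase over no-drug wells; at most 1.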

O=C(O)c1cn(C2CC2)c2cc(N3CCNCC3)c(F)cc2c1=O [Ciprofloxacin] + CCC[C@@H]1C[C@@H](C(=O)N[C@@H]([C@H]2O[C@H](SC)[C@H](O)[C@@H](O)[C@H]2O)[C@@H](C)O)N(C)C1 [Lincomycin]
fitness
Conditions	partner 0.1 µg/mL	partner 0.2 µg/mL	partner 0.215 µg/mL	partner 0.4 µg/mL	partner 0.43 µg/mL	partner 0.8 µg/mL	partner 0.86 µg/mL
B. subtilis 168 [2], first compound 0.0098 µg/mL	0.876	0.814	–	0.9	–	–	–
B. subtilis 168 [2], first compound 0.0195 µg/mL	0.713	0.751	–	0.763	–	–	–
S. pneumoniae D39V [1], first compound 0.125 µg/mL	–	0.564	0.801	0.323	0.722	0.0204	0.469
S. pneumoniae D39V [1], first compound 0.25 µg/mL	–	–	0.789	–	0.701	–	0.517
S. pneumoniae D39V [1], first compound 0.5 µg/mL	–	0.46	0.674	0.292	0.618	0.0616	0.318

fitness, one replicate
Conditions	partner 0.2 µg/mL	partner 0.4 µg/mL	partner 0.8 µg/mL	partner 1.6 µg/mL
B. subtilis 168 [2], first compound 0.0098 µg/mL	–	–	0.943	0.926
B. subtilis 168 [2], first compound 0.0195 µg/mL	–	–	0.745	0.767
B. subtilis 168 [2], first compound 0.039 µg/mL	–	–	0.486	0.674
S. pneumoniae D39V [1], first compound 0.25 µg/mL	0.404	0.256	0	–

Conditions	Bliss interaction score
B. subtilis 168 [4]	0.169
S. aureus DSM 20231	0.208
S. aureus Newman	0.119
S. pneumoniae D39V [3]	0.0743

O=C(O)c1cn(C2CC2)c2cc(N3CCNCC3)c(F)cc2c1=O [Ciprofloxacin] + CO[C@@H]1[C@@H](OC(N)=O)[C@@H](O)[C@H](Oc2ccc3c(O)c(NC(=O)c4ccc(O)c(CC=C(C)C)c4)c(=O)oc3c2C)OC1(C)C [Novobiocin]
fitness, B. subtilis 168 [2]
Conditions	first compound 0.0098 µg/mL	first compound 0.0195 µg/mL	first compound 0.039 µg/mL
partner 0.0125 µg/mL	0.905	0.769	0.127
partner 0.025 µg/mL	0.92	0.723	0.034
partner 0.05 µg/mL	0.964	0.726	0.0487

fitness, B. subtilis 168 [2], one replicate
Conditions	partner 0.1 µg/mL	partner 0.125 µg/mL	partner 0.2 µg/mL	partner 0.25 µg/mL	partner 0.5 µg/mL
first compound 0.0098 µg/mL	0.926	0.84	0.915	0.697	0.15
first compound 0.0195 µg/mL	0.727	0.78	0.71	0.448	0.066
first compound 0.039 µg/mL	0.127	0.0634	0.089	0.0302	0.0454

Conditions	Bliss interaction score
B. subtilis 168 [4]	-0.183
S. aureus DSM 20231	-0.0685
S. aureus Newman	-0.115
S. pneumoniae D39V [3]	-0.161

O=C(O)c1cn(C2CC2)c2cc(N3CCNCC3)c(F)cc2c1=O [Ciprofloxacin] + COc1cc(Cc2cnc(N)nc2N)cc(OC)c1OC [Trimethoprim]
fitness, B. subtilis 168 [2], one replicate
Conditions	partner 0.1 µg/mL	partner 0.2 µg/mL	partner 0.4 µg/mL	partner 1 µg/mL	partner 2 µg/mL
first compound 0.0098 µg/mL	0.863	0.721	0.516	0.342	0.321
first compound 0.0195 µg/mL	0.835	0.552	0.457	0.333	0.349
first compound 0.039 µg/mL	0.412	0.355	0.334	0.276	0.246

fitness, B. subtilis 168 [2]
Conditions	first compound 0.0098 µg/mL	first compound 0.0195 µg/mL	first compound 0.039 µg/mL
partner 0.125 µg/mL	0.647	0.546	0.424
partner 0.25 µg/mL	0.547	0.428	0.355
partner 0.5 µg/mL	0.479	0.444	0.387

Conditions	Bliss interaction score
B. subtilis 168 [4]	0.135
S. aureus DSM 20231	-0.106
S. aureus Newman	-0.165
S. pneumoniae D39V [3]	0.0557
